The values below come from patent EP0298466A2, “Substituted alkene carboxylic acid amides and derivatives” (F. HOFFMANN-LA ROCHE AG, priority 1987, dated 1989).

The experiment deals with T1, Thromboxane Synthase (TXA₂ syn.) (Homo sapiens, UniProt P24557).
T1 construct: using microsomal fractions from human platelets as enzyme source; from tissue; host or cells: microsomal fraction of human platelets
T1 sequence (P24557 1-533): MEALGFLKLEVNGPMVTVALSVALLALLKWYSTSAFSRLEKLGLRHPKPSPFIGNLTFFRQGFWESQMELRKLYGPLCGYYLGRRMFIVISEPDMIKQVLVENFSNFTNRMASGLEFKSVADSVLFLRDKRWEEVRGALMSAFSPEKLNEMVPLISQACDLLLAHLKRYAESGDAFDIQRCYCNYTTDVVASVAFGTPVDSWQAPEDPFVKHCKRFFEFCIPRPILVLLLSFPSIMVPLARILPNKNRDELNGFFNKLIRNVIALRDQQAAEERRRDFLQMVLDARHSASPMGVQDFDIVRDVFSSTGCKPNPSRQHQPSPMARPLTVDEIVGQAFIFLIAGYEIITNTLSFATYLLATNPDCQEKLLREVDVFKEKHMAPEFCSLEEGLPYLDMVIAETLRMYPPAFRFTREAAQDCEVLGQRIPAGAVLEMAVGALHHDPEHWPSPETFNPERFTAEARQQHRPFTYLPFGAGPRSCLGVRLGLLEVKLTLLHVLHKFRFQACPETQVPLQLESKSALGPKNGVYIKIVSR
The experiment can be described thus: TXA₂ Synthesis Inhibition (microsomal fractions from human platelets). The format is biochemical. Particulars: human platelet microsomes, ¹⁴C-PGH₂ 10µM, 22° for 2 minutes; read-out: Inhibition of TXA₂ Synthetase IC₅₀. The method, then:
Thromboxane Synthase (TXA₂ syn.) inhibitory activity is measured by following the conversion of […] using microsomal fractions from human platelets as enzyme source. In the aqueous incubation medium, the TXA₂ decomposes rapidly into TXB₂. The amount of TXA₂ syn, is adjusted so that under the conditions of the assay approximately 80-90% of the substrate, PGH₂, is converted to product in control tubes. To prepare ¹⁴C-PGH₂, ¹⁴C-AA(50-60mCi/mmole) is incubated with sheep seminal vesicular gland microsomes for 1.5 min, at 37° and then the ¹⁴C-PGH₂ is extracted with diethylether, purified on columns of Sephadex LH-20 or silicic acid, and stored in acetone at -70°C. Incubations are done as follows, Sufficient ¹⁴C-PGH₂ to yield a final substrate concentration of 10µM (about 30,000 cpm) is added to the incubation tubes and then the acetone is removed under nitrogen. The tubes are placed in an ice bath and then 215 µl of ice cold phosphate buffered saline, 10 µl of ethanol (control) or of test drug in ethanol and 25 µl of the microsomal suspension are added with mixing in that order as rapidly as possible. The tubes are incubated at 22° for 2 minutes, the reaction is stopped and then the radioactive products and the unconverted PGH₂ are extracted and analyzed by thin layer chromatography. The amount of ¹⁴C-PGH₂ converted to products is analyzed by thin layer chromatography. The amount of ¹⁴C-PGH₂ converted to products was used as a measure of TXA₂ synthase activity. Inhibitors were tested initially at a concentration of 100 µM. IC₅₀ values were calculated by linear regression analysis of successive 10 fold dilutions of the test compound concentration.

Take `O=C(CCCCCC=C(c1ccccc1)c1ccccc1)NCCCCc1cccnc1` [8,8-Diphenyl-N-[4-(3-pyridinyl)butyl]-7-octenamide]: the IC50 lay within 0.1 to 1 µM.
